In publication PMC5791972 (PLoS ONE, 2018):
pIC50, pKi: −log10 of the molar value. Values joined by “and” are separate entries in the source; they are usually repeats but may differ in a detail not shown here. Equal values may be shown once. No end group written: not given here.

Tests used:
β1 (h) = biological target: T1, β1 (h) (Homo sapiens, UniProt P08588); format: binding
T1 construct: host or cells: HEK-293 cells

H2 (h) = biological target: T2, H2 (h) (Homo sapiens, UniProt P25021); format: binding
T2 construct: host or cells: CHO cells

AR (h) = biological target: T3, AR (h) (Homo sapiens, UniProt P10275, T878A); format: binding
T3 construct: AR (h) LNCaP cells [3H]methyltrienolone; host or cells: LNCaP cells (cytosol)
T3 sequence (P10275 1-920 T878A): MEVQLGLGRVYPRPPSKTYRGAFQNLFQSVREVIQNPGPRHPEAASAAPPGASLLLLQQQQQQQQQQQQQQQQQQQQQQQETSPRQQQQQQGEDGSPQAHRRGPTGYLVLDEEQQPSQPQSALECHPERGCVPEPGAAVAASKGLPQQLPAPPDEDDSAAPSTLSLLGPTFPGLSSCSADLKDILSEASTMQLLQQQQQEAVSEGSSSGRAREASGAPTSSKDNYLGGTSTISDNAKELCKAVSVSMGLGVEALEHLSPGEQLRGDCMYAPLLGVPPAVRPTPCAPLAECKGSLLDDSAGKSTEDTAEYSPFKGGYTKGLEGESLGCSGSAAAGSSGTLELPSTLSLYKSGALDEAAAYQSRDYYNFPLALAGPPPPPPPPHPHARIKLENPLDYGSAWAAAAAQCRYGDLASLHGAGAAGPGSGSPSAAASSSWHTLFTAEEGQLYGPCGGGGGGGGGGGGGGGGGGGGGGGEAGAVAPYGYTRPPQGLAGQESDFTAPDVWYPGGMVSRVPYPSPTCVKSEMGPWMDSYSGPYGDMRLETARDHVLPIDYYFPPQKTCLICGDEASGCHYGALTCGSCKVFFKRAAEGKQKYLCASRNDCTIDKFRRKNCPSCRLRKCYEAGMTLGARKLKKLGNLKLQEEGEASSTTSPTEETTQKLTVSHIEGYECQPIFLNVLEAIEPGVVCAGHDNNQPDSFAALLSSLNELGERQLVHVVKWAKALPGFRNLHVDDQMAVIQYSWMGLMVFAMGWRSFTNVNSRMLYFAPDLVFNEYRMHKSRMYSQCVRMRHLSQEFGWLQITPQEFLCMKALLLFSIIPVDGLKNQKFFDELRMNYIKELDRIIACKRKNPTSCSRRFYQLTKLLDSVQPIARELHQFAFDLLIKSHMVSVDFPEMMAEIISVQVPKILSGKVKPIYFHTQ

α2A (h) = biological target: T4, α2A (h) (Homo sapiens, UniProt P08913); format: binding
T4 construct: host or cells: CHO cells
T4 sequence (P08913 1-465): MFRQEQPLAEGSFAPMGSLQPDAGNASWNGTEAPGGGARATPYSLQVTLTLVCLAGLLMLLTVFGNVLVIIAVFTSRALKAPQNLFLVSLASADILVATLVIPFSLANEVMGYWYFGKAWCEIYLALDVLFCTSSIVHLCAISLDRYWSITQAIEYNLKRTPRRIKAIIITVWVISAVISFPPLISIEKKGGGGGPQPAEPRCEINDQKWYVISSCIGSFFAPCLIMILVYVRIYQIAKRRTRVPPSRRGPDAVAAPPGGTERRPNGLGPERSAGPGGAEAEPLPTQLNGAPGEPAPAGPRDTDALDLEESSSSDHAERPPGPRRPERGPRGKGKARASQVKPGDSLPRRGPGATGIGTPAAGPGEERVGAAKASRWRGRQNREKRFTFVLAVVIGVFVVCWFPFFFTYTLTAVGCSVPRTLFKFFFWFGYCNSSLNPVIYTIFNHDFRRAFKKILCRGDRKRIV

A3 (h) = biological target: T5, A3 (h) (Homo sapiens, UniProt P0DMS8); format: binding
T5 construct: host or cells: HEK-293 cells
T5 sequence (P0DMS8 1-318): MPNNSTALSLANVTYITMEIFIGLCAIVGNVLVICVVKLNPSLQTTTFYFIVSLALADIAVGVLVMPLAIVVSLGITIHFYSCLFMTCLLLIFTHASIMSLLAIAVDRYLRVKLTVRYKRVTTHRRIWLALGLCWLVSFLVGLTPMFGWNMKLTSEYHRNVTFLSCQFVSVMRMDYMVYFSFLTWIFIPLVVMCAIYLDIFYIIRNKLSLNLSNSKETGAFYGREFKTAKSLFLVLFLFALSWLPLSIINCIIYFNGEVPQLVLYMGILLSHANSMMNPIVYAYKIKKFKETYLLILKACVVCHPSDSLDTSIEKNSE

PDE6 (non-selective) = biological target: T6, PDE6 (non-selective) (Bos taurus, UniProt P11541+P23439); assay: enzyme assay; format: biochemical, bovine
T6 construct: PDE6 bovine [3H]cGMP; tissue Cerep (contract assay); host or cells: bovine retina
T6 sequence (P11541 2-856 limits assumed): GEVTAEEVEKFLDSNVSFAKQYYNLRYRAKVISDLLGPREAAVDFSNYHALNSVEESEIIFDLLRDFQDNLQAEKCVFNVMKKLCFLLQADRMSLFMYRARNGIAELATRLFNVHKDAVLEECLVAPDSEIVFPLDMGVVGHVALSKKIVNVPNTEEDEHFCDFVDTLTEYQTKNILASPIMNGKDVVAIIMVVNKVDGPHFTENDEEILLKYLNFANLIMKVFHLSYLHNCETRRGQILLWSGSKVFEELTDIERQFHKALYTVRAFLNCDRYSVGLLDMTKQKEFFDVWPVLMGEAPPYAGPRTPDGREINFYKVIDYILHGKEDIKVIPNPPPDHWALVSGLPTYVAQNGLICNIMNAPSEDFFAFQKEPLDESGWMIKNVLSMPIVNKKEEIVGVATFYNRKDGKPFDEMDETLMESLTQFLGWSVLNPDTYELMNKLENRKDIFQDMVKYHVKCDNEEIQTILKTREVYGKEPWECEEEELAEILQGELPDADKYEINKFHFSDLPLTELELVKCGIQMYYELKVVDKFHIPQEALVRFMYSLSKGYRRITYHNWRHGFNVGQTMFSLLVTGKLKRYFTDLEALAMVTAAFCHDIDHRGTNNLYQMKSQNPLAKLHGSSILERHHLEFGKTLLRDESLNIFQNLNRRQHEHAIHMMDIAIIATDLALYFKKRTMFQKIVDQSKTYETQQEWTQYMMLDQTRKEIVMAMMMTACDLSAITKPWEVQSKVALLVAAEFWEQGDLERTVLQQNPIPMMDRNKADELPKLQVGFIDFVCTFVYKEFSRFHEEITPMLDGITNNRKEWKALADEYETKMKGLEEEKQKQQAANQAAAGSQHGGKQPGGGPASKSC
T6 sequence (P23439 2-850 limits assumed): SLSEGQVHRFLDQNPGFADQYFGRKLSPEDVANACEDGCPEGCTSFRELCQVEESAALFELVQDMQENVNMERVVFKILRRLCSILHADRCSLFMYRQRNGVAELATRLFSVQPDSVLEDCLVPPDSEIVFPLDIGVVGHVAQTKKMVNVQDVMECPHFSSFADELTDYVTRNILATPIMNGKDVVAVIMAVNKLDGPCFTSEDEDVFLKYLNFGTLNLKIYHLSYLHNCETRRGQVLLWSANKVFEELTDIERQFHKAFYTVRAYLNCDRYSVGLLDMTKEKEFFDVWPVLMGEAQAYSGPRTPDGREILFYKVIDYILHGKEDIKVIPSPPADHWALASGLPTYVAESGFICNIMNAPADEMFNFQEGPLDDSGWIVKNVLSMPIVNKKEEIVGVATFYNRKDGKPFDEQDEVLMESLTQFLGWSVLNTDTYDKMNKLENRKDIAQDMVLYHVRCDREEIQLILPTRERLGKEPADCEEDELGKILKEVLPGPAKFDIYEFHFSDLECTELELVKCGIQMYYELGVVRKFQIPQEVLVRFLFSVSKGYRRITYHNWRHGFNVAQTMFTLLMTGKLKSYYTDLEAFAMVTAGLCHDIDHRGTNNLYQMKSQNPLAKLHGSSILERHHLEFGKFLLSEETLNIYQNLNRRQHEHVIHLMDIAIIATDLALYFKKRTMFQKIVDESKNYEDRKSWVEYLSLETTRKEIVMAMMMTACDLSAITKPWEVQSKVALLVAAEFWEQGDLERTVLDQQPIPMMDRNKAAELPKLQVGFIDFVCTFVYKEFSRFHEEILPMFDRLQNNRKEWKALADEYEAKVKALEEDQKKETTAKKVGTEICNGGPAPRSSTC

tyrosine hydroxylase = biological target: T7, tyrosine hydroxylase (Rattus norvegicus, UniProt P04177); assay: enzyme assay; format: biochemical
T7 construct: rat striatum; from tissue; host or cells: rat striatum

[1] = biological target: T8, phosphatase 1B (h) (PTP1B) (Homo sapiens, UniProt P18031); assay: enzyme assay; format: biochemical
T8 construct: host or cells: E. coli
T8 sequence (P18031 1-435): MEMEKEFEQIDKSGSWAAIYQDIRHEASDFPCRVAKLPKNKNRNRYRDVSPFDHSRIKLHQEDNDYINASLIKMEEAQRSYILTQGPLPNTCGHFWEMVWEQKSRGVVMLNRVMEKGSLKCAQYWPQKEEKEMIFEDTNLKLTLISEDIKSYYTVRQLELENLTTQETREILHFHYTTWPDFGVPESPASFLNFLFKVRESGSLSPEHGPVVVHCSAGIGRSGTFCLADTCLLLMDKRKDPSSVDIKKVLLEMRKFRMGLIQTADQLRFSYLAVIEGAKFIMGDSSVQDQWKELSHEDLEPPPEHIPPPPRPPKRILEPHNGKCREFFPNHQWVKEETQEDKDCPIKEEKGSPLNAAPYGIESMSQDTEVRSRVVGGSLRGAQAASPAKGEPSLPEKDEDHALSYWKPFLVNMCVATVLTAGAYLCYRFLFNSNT

GABA transaminase = biological target: T9, GABA transaminase (Rattus norvegicus, UniProt P50554); assay: enzyme assay; format: biochemical
T9 construct: rat brain; from tissue; host or cells: rat brain

MT1 (ML1A) (h) = biological target: T10, MT1 (ML1A) (h) (Homo sapiens, UniProt P48039); format: binding
T10 construct: host or cells: CHO cells

MT3 (ML2) = biological target: T11, MT3 (ML2) (Mesocricetus auratus, UniProt A0ABM2YAB8); format: binding, hamster
T11 construct: tissue Cerep; host or cells: hamster brain
T11 sequence (A0ABM2YAB8 1-231): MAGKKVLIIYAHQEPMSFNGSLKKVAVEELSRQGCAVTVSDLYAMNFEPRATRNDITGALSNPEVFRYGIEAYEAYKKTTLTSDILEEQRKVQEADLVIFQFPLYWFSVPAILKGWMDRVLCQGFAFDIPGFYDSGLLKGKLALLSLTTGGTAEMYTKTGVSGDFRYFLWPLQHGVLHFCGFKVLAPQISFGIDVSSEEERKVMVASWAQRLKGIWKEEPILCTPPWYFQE

CaMK2α (h) = CaMK2α (h) (Homo sapiens, UniProt Q9UQM7); assay: enzyme assay; format: biochemical
BLT1 (LTB4) (h) = biological target: T12, BLT1 (LTB4) (h) (Homo sapiens, UniProt Q15722); format: binding
T12 construct: host or cells: CHO cells

α2C (h) = biological target: T13, α2C (h) (Homo sapiens, UniProt P18825); format: binding
T13 construct: host or cells: CHO cells
T13 sequence (P18825 1-462): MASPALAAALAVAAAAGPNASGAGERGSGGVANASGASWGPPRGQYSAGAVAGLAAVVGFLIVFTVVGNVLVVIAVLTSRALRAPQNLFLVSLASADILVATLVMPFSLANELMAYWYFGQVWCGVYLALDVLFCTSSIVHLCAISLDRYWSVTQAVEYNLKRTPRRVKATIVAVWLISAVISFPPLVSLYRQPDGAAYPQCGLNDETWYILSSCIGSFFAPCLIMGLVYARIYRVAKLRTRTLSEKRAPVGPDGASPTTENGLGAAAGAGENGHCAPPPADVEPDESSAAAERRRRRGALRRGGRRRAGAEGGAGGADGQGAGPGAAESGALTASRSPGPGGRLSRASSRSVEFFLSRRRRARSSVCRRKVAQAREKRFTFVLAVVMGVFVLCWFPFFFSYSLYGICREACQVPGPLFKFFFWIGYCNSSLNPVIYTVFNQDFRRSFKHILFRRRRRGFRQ

T9 sequence (P50554 28-500): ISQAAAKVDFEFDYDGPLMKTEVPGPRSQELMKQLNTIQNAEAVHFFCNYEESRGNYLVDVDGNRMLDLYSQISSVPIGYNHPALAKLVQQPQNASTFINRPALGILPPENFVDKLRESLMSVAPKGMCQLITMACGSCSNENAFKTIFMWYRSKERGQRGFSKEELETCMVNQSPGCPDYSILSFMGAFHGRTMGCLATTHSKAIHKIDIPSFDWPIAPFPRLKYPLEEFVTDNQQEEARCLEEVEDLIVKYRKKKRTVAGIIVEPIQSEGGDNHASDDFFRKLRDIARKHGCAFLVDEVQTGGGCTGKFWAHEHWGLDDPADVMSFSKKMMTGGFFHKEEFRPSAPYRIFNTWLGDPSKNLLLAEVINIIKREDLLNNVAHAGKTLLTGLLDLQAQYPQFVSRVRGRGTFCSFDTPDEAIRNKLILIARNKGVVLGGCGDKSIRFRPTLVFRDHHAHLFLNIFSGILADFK
T7 sequence (P04177 whole entry): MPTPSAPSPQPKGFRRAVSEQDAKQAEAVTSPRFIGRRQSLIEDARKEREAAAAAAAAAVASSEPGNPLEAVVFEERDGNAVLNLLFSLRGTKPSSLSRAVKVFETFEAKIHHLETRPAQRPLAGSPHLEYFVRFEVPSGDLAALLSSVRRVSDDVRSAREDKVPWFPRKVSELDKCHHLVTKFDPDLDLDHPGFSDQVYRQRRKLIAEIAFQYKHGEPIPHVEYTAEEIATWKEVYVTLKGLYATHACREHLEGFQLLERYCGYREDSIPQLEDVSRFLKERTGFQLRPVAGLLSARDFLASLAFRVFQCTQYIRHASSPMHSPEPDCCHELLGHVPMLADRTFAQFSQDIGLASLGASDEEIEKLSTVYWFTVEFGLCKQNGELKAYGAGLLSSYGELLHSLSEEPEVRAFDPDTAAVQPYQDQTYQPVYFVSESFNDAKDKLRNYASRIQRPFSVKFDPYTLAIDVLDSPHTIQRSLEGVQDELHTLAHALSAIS
T1 sequence (P08588 whole entry): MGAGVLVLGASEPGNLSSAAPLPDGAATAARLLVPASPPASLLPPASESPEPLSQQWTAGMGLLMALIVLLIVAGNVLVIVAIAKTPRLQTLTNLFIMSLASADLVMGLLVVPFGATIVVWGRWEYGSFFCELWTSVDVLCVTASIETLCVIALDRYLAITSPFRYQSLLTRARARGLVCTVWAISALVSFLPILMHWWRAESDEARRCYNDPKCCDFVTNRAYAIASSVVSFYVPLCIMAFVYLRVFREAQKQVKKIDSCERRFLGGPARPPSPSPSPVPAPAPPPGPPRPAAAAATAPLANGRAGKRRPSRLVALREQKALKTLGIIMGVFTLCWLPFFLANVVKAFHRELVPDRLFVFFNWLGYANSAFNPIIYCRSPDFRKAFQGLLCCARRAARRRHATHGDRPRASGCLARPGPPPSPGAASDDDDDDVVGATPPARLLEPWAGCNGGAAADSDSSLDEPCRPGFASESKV
T12 sequence (Q15722 whole entry): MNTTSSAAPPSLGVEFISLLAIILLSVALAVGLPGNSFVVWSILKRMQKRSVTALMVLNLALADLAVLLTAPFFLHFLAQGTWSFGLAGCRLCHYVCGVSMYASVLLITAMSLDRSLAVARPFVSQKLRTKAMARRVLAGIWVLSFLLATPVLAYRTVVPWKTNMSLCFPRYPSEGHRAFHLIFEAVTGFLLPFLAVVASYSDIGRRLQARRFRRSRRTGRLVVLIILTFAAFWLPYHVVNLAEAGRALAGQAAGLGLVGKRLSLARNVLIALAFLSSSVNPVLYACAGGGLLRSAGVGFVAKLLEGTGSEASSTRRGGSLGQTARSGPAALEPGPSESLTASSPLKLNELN
T2 sequence (P25021 whole entry): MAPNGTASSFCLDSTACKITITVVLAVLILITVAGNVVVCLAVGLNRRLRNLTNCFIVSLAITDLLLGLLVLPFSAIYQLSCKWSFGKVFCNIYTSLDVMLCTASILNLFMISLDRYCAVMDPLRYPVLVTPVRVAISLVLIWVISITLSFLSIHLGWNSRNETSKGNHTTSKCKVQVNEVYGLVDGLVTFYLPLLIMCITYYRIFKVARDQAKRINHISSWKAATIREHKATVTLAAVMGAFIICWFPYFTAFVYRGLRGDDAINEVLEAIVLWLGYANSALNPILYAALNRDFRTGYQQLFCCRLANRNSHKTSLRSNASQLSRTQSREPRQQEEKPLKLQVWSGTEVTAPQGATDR
T10 sequence (P48039 whole entry): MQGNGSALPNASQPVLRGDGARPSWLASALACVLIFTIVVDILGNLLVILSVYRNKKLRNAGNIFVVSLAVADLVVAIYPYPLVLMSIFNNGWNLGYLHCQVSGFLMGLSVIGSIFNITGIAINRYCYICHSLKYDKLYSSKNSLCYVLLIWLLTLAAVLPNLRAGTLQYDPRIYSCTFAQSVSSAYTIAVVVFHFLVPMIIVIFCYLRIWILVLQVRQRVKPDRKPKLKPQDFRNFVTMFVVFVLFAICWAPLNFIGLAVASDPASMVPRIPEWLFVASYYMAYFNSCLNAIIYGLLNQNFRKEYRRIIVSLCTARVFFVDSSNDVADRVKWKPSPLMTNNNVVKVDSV

Compound: CC(C)NCC(O)COc1ccc(CC(N)=O)cc1 (centres unmarked) [atenolol, reference compound]
- nH (β1 (h)): 1.0

Compound: CN/C(=N/CCSCc1nc[nH]c1C)NC#N [cimetidine, reference compound]
- nH (H2 (h)): 0.9

Compound: C[C@@H]1CC2=CC(=O)CC[C@@H]2[C@H]2CC[C@@]3(C)[C@@H](CC[C@]3(C)O)[C@@H]21 [mibolerone, reference compound]
- nH (AR (h)): 1.1 and 1.0

Compound: COC(=O)[C@@H]1[C@H]2C[C@H]3c4[nH]c5ccccc5c4CCN3C[C@@H]2CC[C@@H]1O [yohimbine, reference compound]
- nH (α2A (h)): 1.1

Compound: CNC(=O)[C@H]1O[C@@H](n2cnc3c(NCc4cccc(I)c4)ncnc32)[C@H](O)[C@@H]1O [IB-MECA, reference compound]
- nH (A3 (h)): 0.8

Compound: CCCOc1ccccc1-c1nc2nn[nH]c2c(=O)[nH]1 [zaprinast, reference compound]
- pIC50 (PDE6 (non-selective)): 6.77
- nH (PDE6 (non-selective)): 0.7

Compound: N[C@@H](Cc1ccc(O)c(I)c1)C(=O)O [3-iodo L-tyrosine, reference compound]
- pIC50 (tyrosine hydroxylase): 6.21
- nH (tyrosine hydroxylase): 1.0

Compound: ammonium molybdate [reference compound]
- pIC50 [1]: 6.27
- nH [1]: 2.9

Compound: NOCC(=O)O [AoAA, reference compound]
- pIC50 (GABA transaminase): 6.89
- nH (GABA transaminase): 1.7

Compound: COc1ccc2[nH]cc(CCNC(C)=O)c2c1 [melatonin, reference compound]
- nH (MT1 (ML1A) (h)): 1.0
- pIC50 (MT3 (ML2)): 7.42 and 6.59
- pKi (MT3 (ML2)): 7.43 and 6.60

Compound: KKALRRQEAVDAL [AIP, reference compound]
- pIC50 (CaMK2α (h)): 7.09
- nH (CaMK2α (h)): 1.0

Compound: CCCCC/C=C\C[C@@H](O)/C=C/C=C/C=C\[C@@H](O)CCCC(=O)O [LTB4, reference compound]
- nH (BLT1 (LTB4) (h)): 0.8

Compound: CNC[C@H](O)c1ccc(O)c(O)c1 [epinephrine, reference compound]
- nH (α2C (h)): 1.1
